According to patent US6365753B1, “Phthalimides and herbicide containing the same as active component” (Mitsubishi Chemical Corporation, priority 1998, dated 2002):

Columns and labels:
Assay type in all cases: in vivo
Alopeculus aequalis = experiment: Foliar treatment test (1) post-emergence application; conditions: foliar treatment post-emergence at 1.0- to 2.0-leaf stage, 10 g/a active ingredient, 21st day from treatment; herbicidal index; note: ranges in brackets are in %
Protocol: (§1) Volcanic ash soil from a field was put in a resin-made pot having an area of 200 cm^2. After fertilization, the seeds of Brassica juncea, Ipomoea purpurea, Echinochloa crus-galli and Alopeculus aequalis were cast on the soil and uniformly covered with the soil.
(§2) Cultivation was continued in a greenhouse, and when the weeds reached the 1.0- to 2.0-leaf stage, a prescribed amount of the emulsifiable concentrate comprising the compound of the invention as an active ingredient which was prepared in Formulation Example 3 as diluted with water was sprayed uniformly to the weeds by means of a small-sized power pressure spray to give 10 g of the active ingredient per are.
(§3) Thereafter, cultivation was further continued in the greenhouse, and the herbicidal effect was examined on the 21st day from the treatment. The results obtained are shown in Table 6 (the compound numbers in Table 6 correspond to those in Tables 1 and 2). The herbicidal effect was evaluated based on the same criteria as in Test Example 1.

Brassica juncea [1] = experiment: as above; conditions: foliar treatment post-emergence at 1.0- to 2.0-leaf stage, 10 g/a active ingredient, 21st day from treatment; herbicidal index
Protocol: as §1, §2, §3

Ipomoea purpurea = experiment: as above; conditions: foliar treatment post-emergence at 1.0- to 2.0-leaf stage, 10 g/a active ingredient, 21st day from treatment; herbicidal index; note: ranges in brackets are in %
Protocol: as §1, §2, §3

Echinochloa crus-galli [2] = experiment: as above; conditions: foliar treatment post-emergence at 1.0- to 2.0-leaf stage, 10 g/a active ingredient, 21st day from treatment; herbicidal index
Protocol: as §1, §2, §3

Monochoria vaginalis = experiment: Submerged treatment test; conditions: 10 g/a active ingredient, treated 5th day from sowing, examined on the 2.8th day from treatment, herbicidal index; note: ranges in brackets are in %
Protocol: (§4) Alluvial soil from a paddy field was put in a resin-made pot having an area of 200 cm^2. After fertilization, an adequate amount of water was added, and the soil was puddled and leveled. Seeds of Echinochloa crus-galli, Monochoria vaginalis, Rotala indica and Scirpus juncoides were sowed within a layer 0.5 cm below the surface of the soil. Water was poured onto the soil to keep a water depth of 3.5 cm.
(§5) On the 5th day from the sowing, the emulsifiable concentrate containing the compound of the invention as an active ingredient which was prepared in Formulation Example 3 was diluted with water. A prescribed amount of the diluted composition was dropped to the water so as to give 10 g of the active ingredient per are.
(§6) Cultivation was continued in a greenhouse, and the herbicidal effect was examined on the […] from the treatment. The results obtained are shown in Table 4 (the compound numbers in Table 4 correspond to those in Tables 1 and 2). The herbicidal effect was evaluated in terms of herbicidal index based on Y(%) obtained from equation:
(§7) y=[1−(Weight of weeds above the ground in a treated pot)/(Weight of weeds above the ground in a non-treated pot)]×100 (%)

Rotala indica = experiment: Submerged treatment test; conditions: 10 g/a active ingredient, treated 5th day from sowing, examined on the 2.8th day from treatment, herbicidal index; note: ranges in brackets are in %
Protocol: as §4, §5, §6, §7

Scirpus juncoides = experiment: Submerged treatment test; conditions: 10 g/a active ingredient, treated 5th day from sowing, examined on the 2.8th day from treatment, herbicidal index; note: ranges in brackets are in %
Protocol: as §4, §5, §6, §7

Echinochloa crus-galli [3] = experiment: Submerged treatment test; conditions: 10 g/a active ingredient, treated 5th day from sowing, examined on the 2.8th day from treatment, herbicidal index; note: ranges in brackets are in %
Protocol: as §4, §5, §6, §7

Chenopodium album = experiment: Soil treatment test pre-emergence application; conditions: 10 g/a active ingredient, 28th day from treatment, herbicidal index; note: ranges in brackets are in %
Protocol: (§8) Volcanic ash soil from a field was put in a resin-made pot having an area of 200 cm^2. After fertilization, soil previously mixed uniformly with the seeds of Digitaria ciliaris, Setaria viridis, Chenopodium album and Polygonum lapathifolium was scattered on the soil. The emulsifiable concentrate comprising the compound of the invention as an active ingredient which was obtained in Formulation Example 3 was diluted with water, and a prescribed amount of the diluted composition was sprayed uniformly to the surface of the soil by means of a small-sized power pressure spray to give 10 g of the active ingredient per are.
(§9) Thereafter, cultivation was continued in a greenhouse, and the herbicidal effect was examined on the 28th day from the treatment. The results obtained are shown in Table 5 (the compound numbers in Table 5 correspond to those in Tables 1 and 2). The herbicidal effect was evaluated based on the same criteria as in Test Example 1.

Setaria viridis = experiment: Soil treatment test pre-emergence application; conditions: 10 g/a active ingredient, 28th day from treatment, herbicidal index; note: ranges in brackets are in %
Protocol: as §8, §9

Digitaria ciliaris = experiment: Soil treatment test pre-emergence application; conditions: 10 g/a active ingredient, 28th day from treatment, herbicidal index; note: ranges in brackets are in %
Protocol: as §8, §9

Polygonum lapathifolium = experiment: Soil treatment test pre-emergence application; conditions: 10 g/a active ingredient, 28th day from treatment, herbicidal index; note: ranges in brackets are in %
Protocol: as §8, §9

Brassica juncea [4] = experiment: Foliar treatment test (3) post emergence application; conditions: 3.0 to 4.0-leaf stage, 0.125% X-77, 21st day, index
Protocol: (§10) Volcanic ash soil from a field was put in a resin-made pot having an area of 200 cm^2. After fertilization, the seeds of Galim spurium, Brassica juncea, and wheat were cast on the soil and covered with the soil uniformly. Cultivation was continued in a greenhouse until the plants reached to the 3.0 to 4.0-leaf stage.
(§11) The emulsifiable concentrate comprising compound No. 5 of the present invention, comparative compound (B) or comparative compound (C) as an active ingredient which was prepared in accordance with Formulation Example 3 was diluted with water containing 0.125% of a spreading agent X-77 (trade name, Valent USA Co.) so that a spray of 250 L/ha might give a prescribed amount of the active ingredient. The diluted composition was uniformly sprayed to the Galium spurium plant, the Brassica juncea plant, and the wheat plant by means of a small-sized power pressure spray.
(§12) Thereafter, cultivation was continued in the greenhouse, and the herbicidal effect and the injury to the crop were examined on the 21st day from the treatment. The herbicidal effect and the injury to the crop were evaluated on the same criteria as in Test Example 4.

Galium spurium = experiment: as above; conditions: 3.0 to 4.0-leaf stage, 0.125% X-77, 21st day, index
Protocol: as §10, §11, §12

wheat = experiment: Foliar treatment test (3) post emergence application, crop injury; conditions: 3.0 to 4.0-leaf stage, 0.125% X-77, 21st day, index
Protocol: as §10, §11, §12
Throughout, for Herbicidal Effect Echinochloa crus-galli: ranges in brackets are in %.

Structure (SMILES) | Herbicidal Effect Alopeculus sequalis (Alopeculus aequalis) | Herbicidal Effect Brassica juncea (Brassica juncea [1]) | Herbicidal Effect Ipompoea-purpurea (Ipomoea purpurea) | Herbicidal Effect Echinochloa crus-galli (Echinochloa crus-galli [2]) | Herbicidal Effect Monochoria vaginalis (Monochoria vaginalis) | Herbicidal Effect Rotala indica (Rotala indica) | Herbicidal Effect Scirpus juncoides (Scirpus juncoides) | Herbicidal Effect Echinochloa crus-galli (Echinochloa crus-galli [3]) | Herbicidal Effect Chenopodium album (Chenopodium album) | Herbicidal Effect Setaria viridis (Setaria viridis) | Herbicidal Effect Digitaria ciliaris (Digitaria ciliaris) | Herbicidal Effect Polygonum lapathifolium (Polygonum lapathifolium) | other results
CCCCOC(=O)C(Cl)Cc1cc(N2C(=O)c3ccccc3C2=O)c(F)cc1Cl (stereo not drawn) [Compound 8] | 1 (6-30) | 5 (91-100) | 5 (91-100) | 1 (6-30) | 5 (91-100) | 5 (91-100) | 5 (91-100) | 5 (91-100) |  |  |  |  | 
C=CCNC(=O)C(Cl)Cc1cc(N2C(=O)c3ccccc3C2=O)c(F)cc1Cl (stereo not drawn) [Compound 12] | 2 (31-50) | 5 (91-100) | 5 (91-100) | 4 (71-90) | 5 (91-100) | 5 (91-100) | 1 (6-30) | 5 (91-100) | 5 (91-100) | 4 (71-90) | 4 (71-90) | 4 (71-90) | 
CC(C)CNC(=O)C(Cl)Cc1cc(N2C(=O)c3ccccc3C2=O)c(F)cc1Cl (stereo not drawn) [Compound 11] | 4 (71-90) | 5 (91-100) | 5 (91-100) | 4 (71-90) |  |  |  |  | 5 (91-100) | 4 (71-90) | 4 (71-90) | 5 (91-100) | 
CN(C)C(=O)C(Cl)Cc1cc(N2C(=O)c3ccccc3C2=O)c(F)cc1Cl (stereo not drawn) [Compound 14] | 4 (71-90) | 5 (91-100) | 5 (91-100) | 3 (51-70) | 5 (91-100) | 5 (91-100) | 3 (51-70) | 5 (91-100) | 5 (91-100) | 3 (51-70) | 3 (51-70) | 5 (91-100) | 
COC(=O)C(Cl)Cc1cc(N2C(=O)c3ccccc3C2=O)c(F)cc1Cl (stereo not drawn) [Compound 4, Methyl 2-Chloro-3-(2-chloro-4-fluoro-5-phthalimidophenyl)propionate] | 1 (6-30) | 5 (91-100) | 5 (91-100) | 2 (31-50) |  |  |  |  | 5 (91-100) | 0 (0-5) | 0 (0-5) | 5 (91-100) | 
CCOC(=O)C(Cl)Cc1cc(N2C(=O)c3ccccc3C2=O)c(F)cc1Cl (stereo not drawn) [Compound 5, ethyl 2-chloro-3-(2-chloro-4-fluoro-5-phthalimidophenyl)propionate] | 1 (6-30) | 5 (91-100) | 5 (91-100) | 3 (51-70) | 5 (91-100) | 5 (91-100) | 4 (71-90) | 4 (71-90) |  |  |  |  | Herbicidal Effect Brassica juncea (Brassica juncea [4]; 12.5 ga.i./ha): 10 (100); Herbicidal Effect Brassica juncea (Brassica juncea [4]; 25.0 ga.i./ha): 10 (100); Herbicidal Effect Brassica juncea (Brassica juncea [4]; 50.0 ga.i./ha): 10 (100); Herbicidal Effect Galium spurium (Galium spurium; 12.5 ga.i./ha): 10 (100); Herbicidal Effect Galium spurium (Galium spurium; 25.0 ga.i./ha): 10 (100); Herbicidal Effect Galium spurium (Galium spurium; 50.0 ga.i./ha): 10 (100); Crop Injury Wheat (wheat; 12.5 ga.i./ha): 0 (0); Crop Injury Wheat (wheat; 25.0 ga.i./ha): 0 (0); Crop Injury Wheat (wheat; 50.0 ga.i./ha): 1 (1-9)
O=C(OC1CCCC1)C(Cl)Cc1cc(N2C(=O)c3ccccc3C2=O)c(F)cc1Cl (stereo not drawn) [Compound 9] | 1 (6-30) | 5 (91-100) | 5 (91-100) | 2 (31-50) | 5 (91-100) | 5 (91-100) | 5 (91-100) | 5 (91-100) |  |  |  |  | 
CCCOC(=O)C(Cl)Cc1cc(N2C(=O)c3ccccc3C2=O)c(F)cc1Cl (stereo not drawn) [Compound 6] | 2 (31-50) | 5 (91-100) | 5 (91-100) | 2 (31-50) | 5 (91-100) | 5 (91-100) | 5 (91-100) | 5 (91-100) | 5 (91-100) | 0 (0-5) | 0 (0-5) | 5 (91-100) | 
O=C(O)C(Cl)Cc1cc(N2C(=O)c3ccccc3C2=O)c(F)cc1Cl (stereo not drawn) [Compound 3, 2-Chloro-3-(2-chloro-4-fluoro-5-pthalimidophenyl)propionic Acid] | 1 (6-30) | 5 (91-100) | 5 (91-100) | 1 (6-30) |  |  |  |  | 5 (91-100) | 0 (0-5) | 0 (0-5) | 5 (91-100) | 
